In patent publication US10034931B2, “Use of EGFR pathway inhibitors to increase immune responses to antigens” (Emory University, priority 2013, dated 2018):

Key:
[1] = system: influenza-specific binding IgG antibodies; assay: Virus-specific (total vaccine-reactive) antibody levels by ELISA; format: in vivo, BALB/c mice; settings: between the three groups (EGFRI, vehicle, vaccine only)
[2] = system: vaccine-specific IgM-secreting cells and IgG-secreting cells; assay: Vaccine-specific antibody secreting cells (ELISPOT) in skin draining lymph nodes and spleen; format: in vivo, BALB/c mice
[3] = system: IFN-γ-producing and IL-4-producing cells; assay: IL-4 and IFN-γ secreting cells (ELISPOT) in skin-draining lymph nodes and spleens; format: in vivo, BALB/c mice
[4] = system: A/California/07/2009 virus; assay: Neutralizing antibody titers by microneutralization assay in sera of vaccinated mice; format: in vivo, BALB/c mice; settings: by week 8; vs vehicle-vaccinated and vaccine alone
CCL2 = assay: Steady state mRNA levels of immune genes in skin after topical application; format: in vivo, Balb/c mice; settings: topical application to dorsal skin, six hour time point
Excerpt: The topical application of the irreversible EGFR inhibitor PD168393 can enhance the elicitation phase of contact hypersensitivity in a manner that is associated with increases in several chemoattractant chemokines. During EGFRI therapy there are changes in immune gene expression even in clinically normal (non-inflamed) skin). To determine how EGFR inhibition alters immune gene expression, PD168393 or vehicle (10% DMSO in ethanol) was applied to the backs of Balb/c mice (5 mice per group) and steady state mRNA levels of several genes were measured. A six hour time point was selected for these experiments. […] This increase was observed independent of the reference housekeeping gene used in the analysis. In contrast, steady state levels of the housekeeping genes and several other genes analyzed were unchanged by topical PD168393 at this time point. These studies indicate that a single application of an EGFRI to mouse skin can alter the expression of chemokines that are known to influence immune cell trafficking into the skin.

[5] = system: A/California/07/09 (H1N1) influenza virus; assay: Hemagglutination inhibition (HAI) titers in sera of vaccinated mice; format: in vivo, BALB/c mice
contact hypersensitivity = settings: topical application; associated with increases in several chemoattractant chemokines; cited from earlier work

C=CC(=O)Nc1ccc2ncnc(Nc3cccc(Br)c3)c2c1 [PD168393, N-[4-(3-bromoanilino)quinazolin-6-yl]prop-2-enamide]
total vaccine-reactive antibodies [1]: no differences | numbers of IgG-secreting cells ([2]; skin draining lymph nodes, 1 and 2 weeks post vaccination, vs vehicle-vaccinated mice): significantly higher | number of IgG secreting cells ([2]; skin draining lymph nodes, day 14, vs vehicle-vaccinated mice): twice as high | number of IgM secreting cells ([2]; skin draining lymph nodes, seven days post vaccination, vs vehicle-vaccinated mice): double | number of cells producing influenza-specific antibodies ([2]; skin-draining lymph nodes, topical treatment prior to vaccination): increase | cellular responses in the spleen (antibody secreting cells) ([2]; spleen, EGFRI- vs vehicle-vaccinated mice): without any notable differences | numbers of activated influenza-specific immune cells as defined by IFN-γ and IL-4 secretion ([3]; one week post immunization, vs vehicle-vaccinated mice): higher numbers | numbers of IL-4 secreting cells ([3]; skin-draining lymph nodes, one week post immunization, vs vehicle-vaccinated mice): 3 fold | numbers of IFN-γ secreting cells ([3]; skin-draining lymph nodes, one week post-vaccination, vs vaccine-vehicle cohort): 4 fold | levels of IL-4 secreting lymphocytes ([3]; skin-draining lymph nodes, two weeks post immunization, vs vehicle): significantly higher | difference in numbers of IFN-γ secreting cells ([3]; skin-draining lymph nodes, two weeks post vaccination, vs vaccine-vehicle cohort): absent | numbers of IL-4 and IFN-γ secreting cells in spleens ([3]; spleens, EGFRI- vs vehicle-vaccinated mice): no differences | NT titers [4]: increased relative to both control groups | steady state levels of the housekeeping genes and several other genes (CCL2): unchanged | steady state mRNA levels of the chemokine CCL2 (CCL2; vs vehicle (10% DMSO in ethanol)): statistically significant increase | HAI titers, difference to vaccine alone or vehicle-vaccine group ([5]; as early as week 4): two-fold higher | functionally relevant humoral immune responses ([5]; single application at site just prior to intradermal vaccination, vs vehicle (10% DMSO in ethanol)-treated mice): significantly higher | HAI titers ([5]; single topical application at site just prior to intradermal vaccination, vs vehicle-vaccine and vaccine only): significantly higher | elicitation phase of contact hypersensitivity (contact hypersensitivity): enhance
